Our source for the EC50 and CC50 values is patent publication US5696151A, “Compounds useful for the inhibition of the replication of HIV-1 and HIV-1 mutants” (priority 1995, dated 1997).

In general, EC50 refers to the concentration giving half of the maximal effect. One may read the CC50 as the concentration at which the toxic effect on the cells reaches its halfway point. Higher therefore signals lower toxicity to the cells.

Structures are written as SMILES. Values after ≈ are worked out from the molar mass of the structure shown.

Holding throughout (assay type): cell-based
One data set concerns HIV-1/181-Cys. Briefly: Inhibition of HIV-1 induced syncytium formation in CEM cells, RT mutant 181-Cys. As to conditions: Human immunodeficiency virus 1, CCRF-CEM, 96 h, Table 2B, day 4, averages of 2 to 3 independent experiments, read-out: Antiviral Activity of Comparative Compounds EC50, 181-Cys. From the text: (§1) CEM cells were obtained from the American Tissue Cell Culture Collection (Rockville, Md.). HIV-1(IIIB) was originally obtained from the culture supernatant of persistently HIV-1-infected H9 cells and was provided by R. C. Gallo and M. Popovic (National Cancer Institute, National Institutes of Health, Bethesda, Md.). […] 67: 5353-5359 (1993); HIV-1/Lys-138 ("Lys-138") was selected for resistance against TSAO-m^3T as described in Balzarini et al, Virology 192: 246-253 (1993) and Balzarini et al, Proc. Nat. Acad. Sci. USA 90: 6952-6956 (1993); HIV-1/181-Cys ("181-Cys") was selected for resistance against pyridinone L-697,661 as described in Balzarini et al, Virology 192: 246-253 (1993); and HIV-1/188-His ("188-His") was selected for resistance against HEPT as described in Balzarini et al, Mol. Pharmocol. 44: 694-701 (1993). 188-His was then further converted to HIV-1/188-Leu "188-Leu") upon further passage in cell culture in the absence of the HEPT.
(§2) CEM cells were suspended at ≈300,000 cells per ml of culture medium and infected with approximately 100 CCID50 (CCID50 being the 50% cell culture infective dose) of HIV-1(IIIB) or one of the HIV-1 RT mutant strains described above. Then 100 μl of the infected cell suspensions was added to 200 μl microtiter plate wells containing 100 μl of appropriate serial (5-fold) dilutions of the test compounds. The inhibitory effect of the test compounds on HIV-1 induced syncytium formation in CEM cells was examined microscopically on day 4 post infection.

The next data set relates to HIV-1/100-Ile. Put plainly: Inhibition of HIV-1 induced syncytium formation in CEM cells, RT mutant 100-Ile. As to conditions: Human immunodeficiency virus 1, CCRF-CEM, 96 h, Table 2B, day 4, averages of 2 to 3 independent experiments, read-out: Antiviral Activity of Comparative Compounds EC50, 100-Ile.
Text: as §1, §2

The test system of a further data set is HIV-1/Lys-138. Put plainly: Inhibition of HIV-1 induced syncytium formation in CEM cells, RT mutant 138-Lys. To be noted: Human immunodeficiency virus 1, CCRF-CEM, 96 h, Table 2B, day 4, averages of 2 to 3 independent experiments, read-out: Antiviral Activity of Comparative Compounds EC50, 138-Lys.
Text: as §1, §2

The nature of the next data set: in vitro. To be noted: human, cem cells, CC50 (50% cytostatic concentration), Table 2B; CEM cell proliferation; averages of 2 to 3 independent experiments.
Text: as §1
^b 50% cytostatic concentration (i.e., compound concentration require
to inhibit CEM cell proliferation by 50%)

In another data set the test system is HIV-1(IIIB). Briefly: Inhibition of HIV-1 induced syncytium formation in CEM cells, wild type. To be noted: Human immunodeficiency virus 1, IIIB, CCRF-CEM, 96 h, Table 2B, WT = HIV-1(IIIB), day 4, averages of 2 to 3 independent experiments, read-out: Antiviral Activity of Comparative Compounds EC50, WT.
Text: as §1, §2

In a further data set the test system is HIV-1/106-Ala. Briefly: Inhibition of HIV-1 induced syncytium formation in CEM cells, RT mutant 106-Ala. To be noted: Human immunodeficiency virus 1, CCRF-CEM, 96 h, Table 2B, day 4, averages of 2 to 3 independent experiments, read-out: Antiviral Activity of Comparative Compounds EC50, 106-Ala.
Text: as §1, §2

Consider `CC(C)ON=Cc1cc(NC(=S)c2ccccc2)ccc1Cl` [Compound 96], for which the EC50 in the data set on HIV-1/181-Cys was greater than 1 µg/mL; with HIV-1/100-Ile it was greater than 1 µg/mL; in the data set with HIV-1/Lys-138, 0.17 µg/mL (≈ 0.511 µM); with HIV-1(IIIB), 0.05 µg/mL (≈ 0.15 µM); in the data set with HIV-1/106-Ala, 0.75 µg/mL (≈ 2.25 µM). In the data set “in vitro”, this molecule displayed a 50% cytotoxic concentration (CC50) of 9 µg/mL (≈ 27 µM).

For `C=CCON=Cc1cc(NC(=S)c2ccoc2C)ccc1Cl` [Compound 111], the EC50 in the data set on HIV-1/181-Cys was found to be 0.3 µg/mL (≈ 0.896 µM); in the data set on HIV-1/100-Ile, 0.5 µg/mL (≈ 1.49 µM); in the data set on HIV-1/Lys-138 it was 0.077 µg/mL (≈ 0.23 µM); in the data set with HIV-1(IIIB), 0.007 µg/mL (≈ 0.0209 µM); with HIV-1/106-Ala, 0.085 µg/mL (≈ 0.254 µM). Besides, the half-maximal cytotoxic concentration (CC50) in the data set “in vitro” was found to be 12 µg/mL (≈ 35.8 µM).

Take `Cc1occc1C(=S)Nc1ccc(Cl)c(C(=O)OC(C(C)C)C(C)C)c1` [Compound 102]: the EC50 came out at 0.65 µg/mL (≈ 1.65 µM) in the data set on HIV-1/181-Cys; 0.85 µg/mL (≈ 2.16 µM) in the data set on HIV-1/100-Ile; 0.08 µg/mL (≈ 0.203 µM) with HIV-1/Lys-138; 0.03 µg/mL (≈ 0.0762 µM) with HIV-1(IIIB); 0.85 µg/mL (≈ 2.16 µM) in the data set on HIV-1/106-Ala. The molecule further gave a cytotoxic concentration (CC50) in “in vitro” of 3.7 µg/mL (≈ 9.39 µM).

`CC(C)OC(=O)c1cc(NC(=S)c2ccco2)ccc1Cl` [Compound 86]: the EC50 came to 5 µg/mL (≈ 15.4 µM) in the data set with HIV-1/181-Cys; 5 µg/mL (≈ 15.4 µM) with HIV-1/100-Ile; 4 µg/mL (≈ 12.4 µM) in the data set with HIV-1/Lys-138; 0.1 µg/mL (≈ 0.309 µM) in the data set on HIV-1(IIIB); 5 µg/mL (≈ 15.4 µM) in the data set with HIV-1/106-Ala. The molecule also showed a CC50 in the data set “in vitro” of 7.4 µg/mL (≈ 22.9 µM).

As for `CCOC(=O)CSc1cc(NC(=S)c2ccoc2C)ccc1Cl` [Compound 116], the EC50 in the data set with HIV-1/181-Cys worked out at 2 µg/mL (≈ 5.41 µM); in the data set with HIV-1/100-Ile, 1.8 µg/mL (≈ 4.87 µM); with HIV-1/Lys-138, 0.6 µg/mL (≈ 1.62 µM); in the data set with HIV-1(IIIB), 0.085 µg/mL (≈ 0.23 µM); with HIV-1/106-Ala it was 5.5 µg/mL (≈ 14.9 µM). In “in vitro”, this molecule registered a CC50 of no less than 100 µg/mL.

On to `C=CCOc1cc(NC(=S)c2sccc2C)ccc1OC` [Compound 78], for which the 50% effective concentration (EC50) in the data set on HIV-1/181-Cys is 3.3 µg/mL (≈ 10.3 µM); in the data set on HIV-1/100-Ile, 5 µg/mL (≈ 15.7 µM); with HIV-1/Lys-138, 1.13 µg/mL (≈ 3.54 µM); in the data set with HIV-1(IIIB), 0.045 µg/mL (≈ 0.141 µM); with HIV-1/106-Ala, 2 µg/mL (≈ 6.26 µM). In the data set “in vitro”, this molecule registered a CC50 of 7.1 µg/mL (≈ 22.2 µM).

For `Cc1ccoc1C(=S)Nc1ccc(Cl)c(C(=O)OC(C)C)c1` [Compound 87], the concentration giving a half-maximal response (EC50) in the data set on HIV-1/181-Cys amounted to 0.53 µg/mL (≈ 1.57 µM); in the data set with HIV-1/100-Ile, 3 µg/mL (≈ 8.88 µM); in the data set on HIV-1/Lys-138 it was 0.55 µg/mL (≈ 1.63 µM); with HIV-1(IIIB), 0.02 µg/mL (≈ 0.0592 µM); with HIV-1/106-Ala, 1 µg/mL (≈ 2.96 µM). The same molecule displayed a CC50 in the data set “in vitro” of 15 µg/mL (≈ 44.4 µM).

As to `COc1ccccc1C(=S)Nc1ccc(Cl)c(C(=O)OC(C)C)c1` [Compound 90], the concentration for a half-maximal effect (EC50) stood at 5.5 µg/mL (≈ 15.1 µM) in the data set on HIV-1/181-Cys; 3.5 µg/mL (≈ 9.62 µM) in the data set on HIV-1/100-Ile; 0.7 µg/mL (≈ 1.92 µM) in the data set with HIV-1/Lys-138; 0.19 µg/mL (≈ 0.522 µM) with HIV-1(IIIB); 6 µg/mL (≈ 16.5 µM) in the data set with HIV-1/106-Ala. Besides, the midpoint of cytotoxicity in “in vitro”, the CC50, lay at 27 µg/mL (≈ 74.2 µM).

Regarding `C=CCOc1cc(NC(=S)c2ccoc2C)ccc1OC` [Compound 73], the EC50 was 0.85 µg/mL (≈ 2.8 µM) in the data set on HIV-1/181-Cys; 2.9 µg/mL (≈ 9.56 µM) in the data set on HIV-1/100-Ile; 0.09 µg/mL (≈ 0.297 µM) in the data set on HIV-1/Lys-138; 0.017 µg/mL (≈ 0.056 µM) with HIV-1(IIIB); 0.8 µg/mL (≈ 2.64 µM) in the data set on HIV-1/106-Ala. Besides, the CC50 in “in vitro” is greater than 100 µg/mL.

As for `COc1ccc(NC(=O)c2ccoc2C)cc1CC(=O)OC(C)C` [Compound 56], the EC50 in the data set on HIV-1/181-Cys is greater than 10 µg/mL; with HIV-1/100-Ile it was greater than 10 µg/mL; in the data set with HIV-1/Lys-138 it was no less than 10 µg/mL; in the data set on HIV-1(IIIB), 0.7 µg/mL (≈ 2.11 µM); with HIV-1/106-Ala, 6.5 µg/mL (≈ 19.6 µM). In “in vitro”, this molecule yielded a 50% cytotoxic concentration (CC50) of 52 µg/mL (≈ 157 µM).

For `C=C(C)COC(=O)c1cc(NC(=S)c2ccoc2C)ccc1Cl` [Compound 51], the concentration giving a half-maximal response (EC50) was 0.1 µg/mL (≈ 0.286 µM) with HIV-1/181-Cys; 0.8 µg/mL (≈ 2.29 µM) with HIV-1/100-Ile; 0.03 µg/mL (≈ 0.0858 µM) in the data set with HIV-1/Lys-138; 0.006 µg/mL (≈ 0.0172 µM) with HIV-1(IIIB); 0.03 µg/mL (≈ 0.0858 µM) with HIV-1/106-Ala. In the data set “in vitro”, this molecule yielded a CC50 of 6.7 µg/mL (≈ 19.2 µM).

As to `Cc1ccsc1C(=S)Nc1ccc(Cl)c(C=NOC(C)C)c1` [Compound 95], the EC50 is 0.5 µg/mL (≈ 1.42 µM) with HIV-1/181-Cys; 0.65 µg/mL (≈ 1.84 µM) in the data set with HIV-1/100-Ile; 0.16 µg/mL (≈ 0.453 µM) in the data set on HIV-1/Lys-138; 0.008 µg/mL (≈ 0.0227 µM) in the data set with HIV-1(IIIB); 0.08 µg/mL (≈ 0.227 µM) in the data set with HIV-1/106-Ala. For the same molecule, the 50% cytotoxic concentration (CC50) in the data set “in vitro” turned out to be 13 µg/mL (≈ 36.8 µM).
